Source: patent US20180370927A1, “MICROBIOCIDAL OXADIAZOLE DERIVATIVES” (SYNGENTA PARTICIPATIONS AG, priority 2015, published 2018)

Legend:
[1] = test system: Puccinia recondita f. Sp. Tritici; assay: Puccinia recondita f. sp. tritici / wheat / leaf disc preventative (brown rust); type: in vivo; details: foliar, 200 ppm in the applied formulation, wheat leaf segments, preventative, assessed 7 to 9 days after application, read-out: disease control compared to untreated control leaf disks
Description: (§1) Leaf disks or leaf segments of various plant species are cut from plants grown in a greenhouse. The cut leaf disks or segments are placed in multiwell plates (24-well format) onto water agar. The leaf disks are sprayed with a test solution before (preventative) or after (curative) inoculation. Compounds to be tested are prepared as DMSO solutions (max. 10 mg/mL) which are diluted to the appropriate concentration with 0.025% Tween20 just before spraying. The inoculated leaf disks or segments are incubated under defined conditions (temperature, relative humidity, light, etc.) according to the respective test system. A single evaluation of disease level is carried out 3 to 14 days after inoculation, depending on the pathosystem. Percent disease control relative to the untreated check leaf disks or segments is then calculated.
Example 1: Fungicidal Activity Against Puccinia recondita f. Sp. Tritici/Wheat/Leaf Disc Preventative (Brown Rust)
Wheat leaf segments cv. Kanzler were placed on agar in multiwell plates (24-well format) and sprayed with the formulated test compound diluted in water. The leaf disks were inoculated with a spore suspension of the fungus 1 day after application. The inoculated leaf segments were incubated at 19° C. and 75% relative humidity (rh) under a light regime of 12 hours light/12 hours darkness in a climate cabinet and the activity of a compound was assessed as percent disease control compared to untreated when an appropriate level of disease damage appears in untreated check leaf segments (7 to 9 days after application).
(§2) The following compounds at 200 ppm in the applied formulation give at least 80% disease control in this test when compared to untreated control leaf disks under the same conditions, which show extensive disease development.

[2] = test system: Puccinia recondita f. Sp. Tritici; assay: Puccinia recondita f. sp. tritici / wheat / leaf disc curative (brown rust); type: in vivo; details: foliar, 200 ppm in the applied formulation, wheat leaf segments, curative (applied 1 day after inoculation), assessed 6 to 8 days after application, read-out: disease control compared to untreated control leaf disks
Description: as §1
Example 2: Fungicidal Activity Against Puccinia recondita f. Sp. Tritici/Wheat/Leaf Disc Curative (Brown Rust)
Wheat leaf segments cv. Kanzler are placed on agar in multiwell plates (24-well format). The leaf segments are then inoculated with a spore suspension of the fungus. Plates were stored in darkness at 19° C. and 75% relative humidity. The formulated test compound diluted in water was applied 1 day after inoculation. The leaf segments were incubated at 19° C. and 75% relative humidity under a light regime of 12 hours light/12 hours darkness in a climate cabinet and the activity of a compound was assessed as percent disease control compared to untreated when an appropriate level of disease damage appears in untreated check leaf segments (6 to 8 days after application).
as §2

[3] = test system: Glomerella lacenarium (Colletotrichum lacenarium); assay: Glomerella lacenarium (Colletotrichum lacenarium) liquid culture / cucumber / preventative (anthracnose); type: cell-based; details: 20 ppm in the applied formulation, liquid culture in PDB, 24° C., 3 to 4 days after application, read-out: disease control (inhibition of growth, photometric) compared to untreated control
Description: Mycelia fragments or conidia suspensions of a fungus prepared either freshly from liquid cultures of the fungus or from cryogenic storage, are directly mixed into nutrient broth. DMSO solutions of the test compound (max. 10 mg/ml) are diluted with 0.025% Tween20 by a factor of 50 and 10 μL of this solution is pipetted into a microtiter plate (96-well format). The nutrient broth containing the fungal spores/mycelia fragments is then added to give an end concentration of the tested compound. The test plates are incubated in the dark at 24° C. and 96% relative humidity. The inhibition of fungal growth is determined photometrically after 2 to 7 days, depending on the pathosystem, and percent antifungal activity relative to the untreated check is calculated.
Example 4: Fungicidal Activity Against Glomerella lacenarium (Colletotrichum lacenarium) Liquid Culture/Cucumber/Preventative (Anthracnose)
Conidia of the fungus from cryogenic storage are directly mixed into nutrient broth (PDB—potato dextrose broth). After placing a (DMSO) solution of test compound into a microtiter plate (96-well format), the nutrient broth containing the fungal spores is added. The test plates are incubated at 24° C. and the inhibition of growth is measured photometrically 3 to 4 days after application.
The following compounds at 20 ppm in the applied formulation give at least 80% disease control in this test when compared to untreated control under the same conditions, which show extensive disease development.

COCCN(Cc1ccc(-c2noc(C(F)(F)F)n2)cc1)C(=O)C(N)=O [Compound 4.12, N′-(2-methoxyethyl)-N′-[[4-[5-(trifluoromethyl)-1,2,4-oxadiazol-3-yl]phenyl]methyl] oxamide]
≥ 80%: pest or weed control at 200 ppm [1] | pest or weed control at 200 ppm [2] | inhibition at 20 ppm [3]

CC(C)NC(=O)C(=O)NCc1ccc(-c2noc(C(F)(F)F)n2)cc1 [Compound 4.46, N′-isopropyl-N-[[4-[5-(trifluoromethyl)-1,2,4-oxadiazol-3-yl]phenyl]methyl] oxamide]
≥ 80%: pest or weed control at 200 ppm [1] | pest or weed control at 200 ppm [2] | inhibition at 20 ppm [3]

CON(Cc1ccc(-c2noc(C(F)(F)F)n2)cc1)C(=O)C(=O)NC(C)(C)C [Compound 4.75, N-tert-butyl-N′-methoxy-N′-[[4-[5-(trifluoromethyl)-1,2,4-oxadiazol-3-yl]phenyl]methyl] oxamide]
≥ 80%: pest or weed control at 200 ppm [1] | pest or weed control at 200 ppm [2] | inhibition at 20 ppm [3]

CON(Cc1ccc(-c2noc(C(F)(F)F)n2)cc1)C(=O)C(=O)OC1COC1 [Compound 3.3, oxetan-3-yl 2-[methoxy-[[4-[5-(trifluoromethyl)-1,2,4-oxadiazol-3-yl]phenyl]methyl]amino]-2-oxo-acetate]
≥ 80%: pest or weed control at 200 ppm [1] | pest or weed control at 200 ppm [2] | inhibition at 20 ppm [3]

CON(Cc1ccc(-c2noc(C(F)(F)F)n2)cc1)C(=O)C(=O)NC1CC1 [Compound 4.68, N-cyclopropyl-N′-methoxy-N′-[[4-[5-(trifluoromethyl)-1,2,4-oxadiazol-3-yl]phenyl]methyl] oxamide]
≥ 80%: pest or weed control at 200 ppm [1] | pest or weed control at 200 ppm [2] | inhibition at 20 ppm [3]

COC(CN(C)C(=O)C(=O)Nc1ccc(-c2noc(C(F)(F)F)n2)cc1)OC [Compound 4.21, N′-(2,2-dimethoxyethyl)-N'-methyl-N-[4-[5-(trifluoromethyl)-1,2,4-oxadiazol-3-yl]phenyl] oxamide]
≥ 80%: pest or weed control at 200 ppm [1] | pest or weed control at 200 ppm [2] | inhibition at 20 ppm [3]

CON(Cc1ccc(-c2noc(C(F)(F)F)n2)cc1)C(=O)C(=O)NCC(C)C [Compound 4.67, N-isobutyl-N′-methoxy-N′-[[4-[5-(trifluoromethyl)-1,2,4-oxadiazol-3-yl]phenyl]methyl] oxamide]
≥ 80%: pest or weed control at 200 ppm [1] | pest or weed control at 200 ppm [2] | inhibition at 20 ppm [3]

CCNC(=O)C(=O)N(Cc1ccc(-c2noc(C(F)(F)F)n2)cc1)OC [Compound 4.66, N-ethyl-N′-methoxy-N′-[[4-[5-(trifluoromethyl)-1,2,4-oxadiazol-3-yl]phenyl]methyl] oxamide]
≥ 80%: pest or weed control at 200 ppm [1] | pest or weed control at 200 ppm [2] | inhibition at 20 ppm [3]

CCCC(=O)C(=O)N(CCOC)Cc1ccc(-c2noc(C(F)(F)F)n2)cc1 [Compound 1.9, N-(2-methoxyethyl)-2-oxo-N-[[4-[5-(trifluoromethyl)-1,2,4-oxadiazol-3-yl]phenyl]methyl]pentanamide]
≥ 80%: pest or weed control at 200 ppm [1] | pest or weed control at 200 ppm [2] | inhibition at 20 ppm [3]

CNC(=O)C(=O)N(C)Cc1ccc(-c2noc(C(F)(F)F)n2)cc1 [Compound 4.99, N,N′-dimethyl-N′-[[4-[5-(trifluoromethyl)-1,2,4-oxadiazol-3-yl]phenyl]methyl] oxamide]
≥ 80%: pest or weed control at 200 ppm [1] | pest or weed control at 200 ppm [2] | inhibition at 20 ppm [3]

CONC(=O)C(=O)N(Cc1ccc(-c2noc(C(F)(F)F)n2)cc1)C1CC1 [Compound 4.103, N′-cyclopropyl-N-methoxy-N′-[[4-[5-(trifluoromethyl)-1,2,4-oxadiazol-3-yl]phenyl]methyl] oxamide]
≥ 80%: pest or weed control at 200 ppm [1] | pest or weed control at 200 ppm [2] | inhibition at 20 ppm [3]

CN(C)C(=O)C(=O)N(Cc1ccc(-c2noc(C(F)(F)F)n2)cc1)Cc1ccco1 [Compound 4.23, N′-(2-furylmethyl)-N,N-dimethyl-N′-[[4-[5-(trifluoromethyl)-1,2,4-oxadiazol-3-yl]phenyl]methyl] oxamide]
≥ 80%: pest or weed control at 200 ppm [1] | pest or weed control at 200 ppm [2] | inhibition at 20 ppm [3]

CCC(=O)C(=O)NCc1ccc(-c2noc(C(F)(F)F)n2)cc1C [Compound 1.85, N-[[2-methyl-4-[5-(trifluoromethyl)-1,2,4-oxadiazol-3-yl]phenyl]methyl]-2-oxo-butanamide]
≥ 80%: pest or weed control at 200 ppm [1] | pest or weed control at 200 ppm [2] | inhibition at 20 ppm [3]

CCOC(=O)C(=O)N(Cc1ccc(-c2noc(C(F)(F)F)n2)cc1)OC [Compound 3.10, ethyl 2-[methoxy-[[4-[5-(trifluoromethyl)-1,2,4-oxadiazol-3-yl]phenyl]methyl]amino]-2-oxo-acetate]
≥ 80%: pest or weed control at 200 ppm [1] | pest or weed control at 200 ppm [2] | inhibition at 20 ppm [3]

CC(=O)C(=O)N(Cc1ccc(-c2noc(C(F)(F)F)n2)cc1)CC1CCCO1 (stereo not drawn) [Compound 1.14, 2-oxo-N-(tetrahydrofuran-2-ylmethyl)-N-[[4-[5-(trifluoromethyl)-1,2,4-oxadiazol-3-yl]phenyl]methyl]propanamide]
≥ 80%: pest or weed control at 200 ppm [1] | pest or weed control at 200 ppm [2] | inhibition at 20 ppm [3]

CCONC(=O)C(=O)N(Cc1ccc(-c2noc(C(F)(F)F)n2)cc1)OC [Compound 4.74, N-ethoxy-N′-methoxy-N′-[[4-[5-(trifluoromethyl)-1,2,4-oxadiazol-3-yl]phenyl]methyl] oxamide]
≥ 80%: pest or weed control at 200 ppm [1] | pest or weed control at 200 ppm [2] | inhibition at 20 ppm [3]

CON(Cc1ccc(-c2noc(C(F)(F)F)n2)cc1)C(=O)C(=O)N1CCOCC1 [Compound 4.80, N-methoxy-2-morpholino-2-oxo-N-[[4-[5-(trifluoromethyl)-1,2,4-oxadiazol-3-yl]phenyl]methyl] acetamide]
≥ 80%: pest or weed control at 200 ppm [1] | pest or weed control at 200 ppm [2] | inhibition at 20 ppm [3]

CCCC(=O)C(=O)N(Cc1ccc(-c2noc(C(F)(F)F)n2)cc1)Cc1ccco1 [Compound 1.15, N-(2-furylmethyl)-2-oxo-N-[[4-[5-(trifluoromethyl)-1,2,4-oxadiazol-3-yl]phenyl]methyl]pentanamide]
≥ 80%: pest or weed control at 200 ppm [1] | pest or weed control at 200 ppm [2] | inhibition at 20 ppm [3]

CON(Cc1ccc(-c2noc(C(F)(F)F)n2)cc1)C(=O)C(=O)NC(C)C [Compound 4.64, N-isopropyl-N′-methoxy-N′-[[4-[5-(trifluoromethyl)-1,2,4-oxadiazol-3-yl]phenyl]methyl] oxamide]
≥ 80%: pest or weed control at 200 ppm [1] | pest or weed control at 200 ppm [2] | inhibition at 20 ppm [3]

CNC(=O)C(=O)N(Cc1ccc(-c2noc(C(F)(F)F)n2)cc1)C1CC1 [Compound 4.100, N′-cyclopropyl-N-methyl-N′-[[4-[5-(trifluoromethyl)-1,2,4-oxadiazol-3-yl]phenyl]methyl] oxamide]
≥ 80%: pest or weed control at 200 ppm [1] | pest or weed control at 200 ppm [2] | inhibition at 20 ppm [3]

CON(C)C(=O)C(=O)NCc1ccc(-c2noc(C(F)(F)F)n2)cc1 [Compound 4.48, N′-methoxy-N′-methyl-N-[[4-[5-(trifluoromethyl)-1,2,4-oxadiazol-3-yl]phenyl]methyl] oxamide]
≥ 80%: pest or weed control at 200 ppm [1] | pest or weed control at 200 ppm [2] | inhibition at 20 ppm [3]
